Patent publication US9382228B2 (priority 2013, dated 2016)

Tests used:
osteoclast precursors = assay: cells; type: cell-based; conditions: read-out: Osteoclast assay
Protocol: Osteoclast Tartrate-Resistant Acid Phosphatase Assay
Diluted compound was transferred to a 384-well black clear bottom plate. Two-thousand five hundred osteoclast precursors (Lonza, Walkersville, Md.) were added per well in growth media containing Receptor Activator of Nuclear Factor Kappa-beta ligand (RANKL) and M-CSF (R&D Systems, Minneapolis, Minn.). […] Tartrate-resistant acid phosphatase activity in the supernatant samples was determined using an acid phosphatase assay kit (Sigma, St. Louis, Mo.). Absorbance was measured at 550 nm using a plate reader. Data was analyzed using Prism software (Graphpad, San Diego, Calif.) to calculate IC50 values.

M-NFS-60 cells = assay: cells; conditions: 67 h, read-out: M-NFS-60 cell proliferation
Protocol: M-NFS-6 Cell Proliferation Assay
A serial dilution of test compound was dispensed into a 384-well black clear bottom plate (Corning, Corning, N.Y.). Two thousand five hundred cells were added per well in 50 μL complete growth medium. […] IC50 values were calculated from a series of percent inhibition values determined at a range of inhibitor concentrations using software routines as implemented in the GraphPad Prism software package.

[1] = target: T1, unphosphorylated c-FMS kinase (uFMS, Seq. ID no. 1) (Homo sapiens, UniProt P07333); assay: biochemical; conditions: uFMS, enzymatic assay, ATP 500 μM
T1 sequence (P07333 538-972): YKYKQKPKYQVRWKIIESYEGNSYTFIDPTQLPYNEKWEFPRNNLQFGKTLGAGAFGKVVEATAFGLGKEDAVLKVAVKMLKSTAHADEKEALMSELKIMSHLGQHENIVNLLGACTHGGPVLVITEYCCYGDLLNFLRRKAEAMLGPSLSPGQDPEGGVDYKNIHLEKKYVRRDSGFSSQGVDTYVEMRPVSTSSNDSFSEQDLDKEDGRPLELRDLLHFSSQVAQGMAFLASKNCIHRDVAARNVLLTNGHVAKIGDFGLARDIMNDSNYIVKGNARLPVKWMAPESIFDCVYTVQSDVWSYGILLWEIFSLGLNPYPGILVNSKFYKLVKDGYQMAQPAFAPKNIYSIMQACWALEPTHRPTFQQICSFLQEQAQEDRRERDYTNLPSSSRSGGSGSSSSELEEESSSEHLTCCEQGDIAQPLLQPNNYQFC

[2] = target: unphosphorylated c-KIT kinase (uKIT, Seq. ID no. 2) (Homo sapiens, UniProt P10721); assay: biochemical; conditions: uKIT, enzymatic assay, ATP 2000 μM
Protocol: uKit kinase (Seq. ID No. 2) Assay
In this assay, the oxidation of NADH (thus the decrease at A340 nm) was continuously monitored spectrophometrically. […] The inhibition reaction was started by mixing serial diluted test compound with the above reaction mixture. The absorption at 340 nm was monitored continuously for 4 hours at 30° C. on Synergy 2 plate reader (BioTech).

[3] = target: unphosphorylated PDGFRβ kinase (uPDGFRβ, Seq. ID No. 3) (Homo sapiens, UniProt P09619); assay: biochemical; conditions: uPDGFRb, enzymatic assay, ATP 500 μM
Chain of unphosphorylated PDGFRβ kinase (uPDGFRβ, Seq. ID No. 3) (P09619 557-1106): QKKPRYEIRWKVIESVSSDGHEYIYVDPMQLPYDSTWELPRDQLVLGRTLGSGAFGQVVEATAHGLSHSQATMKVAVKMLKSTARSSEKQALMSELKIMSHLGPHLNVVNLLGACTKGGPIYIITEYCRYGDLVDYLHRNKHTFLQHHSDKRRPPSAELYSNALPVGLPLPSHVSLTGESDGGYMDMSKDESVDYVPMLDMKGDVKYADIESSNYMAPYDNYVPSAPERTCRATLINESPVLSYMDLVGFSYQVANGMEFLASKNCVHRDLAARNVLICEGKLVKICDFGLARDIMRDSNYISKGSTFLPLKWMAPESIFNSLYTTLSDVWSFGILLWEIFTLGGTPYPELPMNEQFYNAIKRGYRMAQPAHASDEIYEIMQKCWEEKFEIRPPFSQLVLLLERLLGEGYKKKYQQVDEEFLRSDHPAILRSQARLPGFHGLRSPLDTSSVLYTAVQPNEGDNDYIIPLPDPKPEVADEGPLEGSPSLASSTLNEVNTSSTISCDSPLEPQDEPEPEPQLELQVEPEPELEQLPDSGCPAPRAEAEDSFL
Protocol: Unphosphorylated PDGFRβ (uPDGFRβ) Kinase (Seq. ID No. 3) Assay
In this assay, the oxidation of NADH (thus the decrease at A340 nm) was continuously monitored spectrophometrically. […] The inhibition reaction was started by mixing serial diluted test compound with the above reaction mixture. The absorption at 340 nm was monitored continuously for 4 h at 30° C. on a Polarstar Optima or Synergy 2 plate reader. The reaction rate was calculated using the 1.5 to 2.5 h time frame. Percent inhibition was obtained by comparison of reaction rate with that of a control (i.e. with no test compound). IC50 values were calculated from a series of percent inhibition values determined at a range of inhibitor concentrations using software routines as implemented in the GraphPad Prism software package.

Chain of unphosphorylated c-KIT kinase (uKIT, Seq. ID no. 2) (P10721 with tags, fused parts or gaps): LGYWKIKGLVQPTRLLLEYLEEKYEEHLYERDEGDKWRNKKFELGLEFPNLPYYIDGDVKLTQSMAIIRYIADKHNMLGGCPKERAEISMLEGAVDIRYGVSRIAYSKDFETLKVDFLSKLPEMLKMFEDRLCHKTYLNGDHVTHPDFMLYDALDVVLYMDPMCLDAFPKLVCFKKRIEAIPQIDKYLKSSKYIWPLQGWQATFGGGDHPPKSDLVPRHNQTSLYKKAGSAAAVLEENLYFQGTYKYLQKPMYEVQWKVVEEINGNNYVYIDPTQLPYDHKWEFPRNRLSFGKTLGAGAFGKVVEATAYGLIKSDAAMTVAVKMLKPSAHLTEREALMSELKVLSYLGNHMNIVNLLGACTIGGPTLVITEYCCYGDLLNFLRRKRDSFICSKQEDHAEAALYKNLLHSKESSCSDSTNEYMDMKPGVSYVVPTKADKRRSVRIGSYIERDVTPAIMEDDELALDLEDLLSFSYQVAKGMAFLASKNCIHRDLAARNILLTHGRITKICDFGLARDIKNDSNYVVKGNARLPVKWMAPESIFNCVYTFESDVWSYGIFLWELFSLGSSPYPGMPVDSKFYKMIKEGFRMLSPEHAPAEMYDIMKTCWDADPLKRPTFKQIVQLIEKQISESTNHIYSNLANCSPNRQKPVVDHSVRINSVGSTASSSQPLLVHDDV

| Structure (SMILES) | IC50 (osteoclast precursors) | IC50 (M-NFS-60 cells) | IC50 [1] | IC50 [2] | IC50 [3] |
| --- | --- | --- | --- | --- | --- |
| Cc1cn(-c2cc(Oc3ccc(NC(=O)NC(=O)[C@@H]4C[C@H]5CC[C@@H]4O5)nc3C)ccn2)cn1 (relative stereo) [Example 137, exo-N-((6-methyl-5-((2-(4-methyl-1H-imidazol-1-yl)pyridin-4-yl)oxy)pyridin-2-yl)carbamoyl)-7-oxabicyclo[2.2.1]heptane-2-carboxamide] | 10 to 100 nM | 100 to 1000 nM | 10 to 100 nM | > 1000 nM | > 1000 nM |
| Cc1nc(NC(=O)NC(=O)C23CC4CC(CC(C4)C2)C3)ccc1Oc1ccnc(-c2cnn(C)c2)c1 [Example 37, N-((6-methyl-5-((2-(1-methyl-1H-pyrazol-4-yl)pyridin-4-yl)oxy)pyridin-2-yl)carbamoyl)adamantane-1-carboxamide] | 100 to 1000 nM | 10 to 100 nM | < 10 nM | 10 to 100 nM | 10 to 100 nM |
| Cn1cc(-c2cc(Oc3ccc(NC(=O)NC(=O)CC4CC5CCC4C5)nc3)ccn2)cn1 (centres unmarked) [Example 62, 2-(bicyclo[2.2.1]heptan-2-yl)-N-((5-((2-(1-methyl-1H-pyrazol-4-yl)pyridin-4-yl)oxy)pyridin-2-yl)carbamoyl)acetamide] | < 10 nM | < 10 nM | < 10 nM | < 10 nM | < 10 nM |
| CCC(C)(C)C(=O)NC(=O)Nc1ccc(Oc2ccnc(-c3cnn(C)c3)c2)cn1 [Example 63, 2,2-dimethyl-N-((5-((2-(1-methyl-1H-pyrazol-4-yl)pyridin-4-yl)oxy)pyridin-2-yl)carbamoyl)butanamide] | < 10 nM | < 10 nM | < 10 nM | 100 to 1000 nM | 100 to 1000 nM |
| Cn1cc(-c2cc(Oc3ccc(NC(=O)NC(=O)C4CC5CCC4C5)nc3)ccn2)cn1 (centres unmarked) [Example 64, N-((5-((2-(1-methyl-1H-pyrazol-4-yl)pyridin-4-yl)oxy)pyridin-2-yl)carbamoyl)bicyclo[2.2.1]heptane-2-carboxamide] | 10 to 100 nM | < 10 nM | < 10 nM | < 10 nM | 10 to 100 nM |
| Cn1cc(-c2cc(Oc3ccc(NC(=O)NC(=O)C4CCCC4)nc3)ccn2)cn1 [Example 65, N-((5-((2-(1-methyl-1H-pyrazol-4-yl)pyridin-4-yl)oxy)pyridin-2-yl)carbamoyl)cyclopentanecarboxamide] | < 10 nM | < 10 nM | < 10 nM | < 10 nM | 100 to 1000 nM |
| Cn1cc(-c2cc(Oc3ccc(NC(=O)NC(=O)C4CCCCC4)nc3)ccn2)cn1 [Example 67, N-((5-((2-(1-methyl-1H-pyrazol-4-yl)pyridin-4-yl)oxy)pyridin-2-yl)carbamoyl)cyclohexanecarboxamide] | < 10 nM | < 10 nM | < 10 nM | < 10 nM | 10 to 100 nM |
| Cn1cc(-c2cc(Oc3ccc(NC(=O)NC(=O)C4CCOCC4)nc3)ccn2)cn1 [Example 68, N-((5-((2-(1-methyl-1H-pyrazol-4-yl)pyridin-4-yl)oxy)pyridin-2-yl)carbamoyl)tetrahydro-2H-pyran-4-carboxamide] | < 10 nM | 10 to 100 nM | < 10 nM | 100 to 1000 nM | 100 to 1000 nM |
| Cn1cc(-c2cc(Oc3ccc(NC(=O)NC(=O)C4CC5CCC4CC5)nc3)ccn2)cn1 (centres unmarked) [Example 74, N-((5-((2-(1-methyl-1H-pyrazol-4-yl)pyridin-4-yl)oxy)pyridin-2-yl)carbamoyl)bicyclo[2.2.2]octane-2-carboxamide] | 10 to 100 nM | < 10 nM | < 10 nM | < 10 nM | 10 to 100 nM |
| Cc1cc(-c2cc(Oc3ccc(NC(=O)NC(=O)C4CCOC4)nc3)ccn2)ccn1 (centres unmarked) [Example 85, N-((5-((2′-methyl-[2,4′-bipyridin]-4-yl)oxy)pyridin-2-yl)carbamoyl)tetrahydrofuran-3-carboxamide] | 10 to 100 nM | 100 to 1000 nM | 10 to 100 nM | > 1000 nM | > 1000 nM |
| Cn1cc(-c2cc(Oc3ccc(NC(=O)NC(=O)C4(C)CCC4)nc3)ccn2)cn1 [Example 87, 1-methyl-N-((5-((2-(1-methyl-1H-pyrazol-4-yl)pyridin-4-yl)oxy)pyridin-2-yl)carbamoyl)cyclobutanecarboxamide] | < 10 nM | < 10 nM | < 10 nM | 100 to 1000 nM | 100 to 1000 nM |
| Cc1cc(NC(=O)NC(=O)C(C)C)ncc1Oc1ccnc(-c2cnn(C)c2)c1 [Example 88, N-((4-methyl-5-((2-(1-methyl-1H-pyrazol-4-yl)pyridin-4-yl)oxy)pyridin-2-yl)carbamoyl)isobutyramide] | < 10 nM | < 10 nM | < 10 nM | 10 to 100 nM | 100 to 1000 nM |
| Cc1ccc(-c2cc(Oc3ccc(NC(=O)NC(=O)C4CCOC4)nc3)ccn2)cn1 (centres unmarked) [Example 89, N-((5-((6′-methyl-[2,3′-bipyridin]-4-yl)oxy)pyridin-2-yl)carbamoyl)tetrahydrofuran-3-carboxamide] | 10 to 100 nM | 10 to 100 nM | 10 to 100 nM | > 1000 nM | > 1000 nM |
| CC(C)(C)C(=O)NC(=O)Nc1ccc(Oc2ccnc(-c3cncnc3)c2)cn1 [Example 90, N-((5-((2-(pyrimidin-5-yl)pyridin-4-yl)oxy)pyridin-2-yl)carbamoyl)pivalamide] | 10 to 100 nM | > 1000 nM | 10 to 100 nM | > 1000 nM | > 1000 nM |
| CC(C)(C)C(=O)NC(=O)Nc1ccc(Oc2ccnc(-c3ccc(C(F)(F)F)nc3)c2)cn1 [Example 94, N-((5-((6′-(trifluoromethyl)-[2,3′-bipyridin]-4-yl)oxy)pyridin-2-yl)carbamoyl)pivalamide] | 10 to 100 nM | 10 to 100 nM | < 10 nM | > 1000 nM | > 1000 nM |
| CC(C)(C)C(=O)NC(=O)Nc1ccc(Oc2ccnc(-c3ccnc(C(F)(F)F)c3)c2)cn1 [Example 95, N-((5-((2′-(trifluoromethyl)-[2,4′-bipyridin]-4-yl)oxy)pyridin-2-yl)carbamoyl)pivalamide] | 10 to 100 nM | 100 to 1000 nM | 10 to 100 nM | > 1000 nM | > 1000 nM |
| Cc1ccc(-c2cc(Oc3ccc(NC(=O)NC(=O)C4CCCC4)nc3C)ccn2)cn1 [Example 100, N-((6-methyl-5-((6′-methyl-[2,3′-bipyridin]-4-yl)oxy)pyridin-2-yl)carbamoyl)cyclopentanecarboxamide] | < 10 nM | 10 to 100 nM | < 10 nM | 10 to 100 nM | > 1000 nM |
| Cn1cc(-c2cc(Oc3ccc(NC(=O)NC(=O)C4(C(F)(F)F)CCC4)nc3)ccn2)cn1 [Example 101, N-((5-((2-(1-methyl-1H-pyrazol-4-yl)pyridin-4-yl)oxy)pyridin-2-yl)carbamoyl)-1-(trifluoromethyl)cyclobutanecarboxamide] | 10 to 100 nM | < 10 nM | < 10 nM | 100 to 1000 nM | < 10 nM |
| Cc1nc(NC(=O)NC(=O)C2(C(F)(F)F)CCC2)ccc1Oc1ccnc(-c2cnn(C)c2)c1 [Example 102, N-((6-methyl-5-((2-(1-methyl-1H-pyrazol-4-yl)pyridin-4-yl)oxy)pyridin-2-yl)carbamoyl)-1-(trifluoromethyl)cyclobutanecarboxamide] | 10 to 100 nM | < 10 nM | < 10 nM | 100 to 1000 nM | 100 to 1000 nM |
| CNc1ccc(-c2cc(Oc3ccc(NC(=O)NC(=O)C(C)(C)C)nc3)ccn2)cn1 [Example 105, N-((5-((6′-(methylamino)-[2,3′-bipyridin]-4-yl)oxy)pyridin-2-yl)carbamoyl)pivalamide] | < 10 nM | 10 to 100 nM | < 10 nM | 100 to 1000 nM | 100 to 1000 nM |
| CC(C)(C)C(=O)NC(=O)Nc1ccc(Oc2ccnc(-c3ccc(N)nc3)c2)cn1 [Example 106, N-((5-((6′-amino-[2,3′-bipyridin]-4-yl)oxy)pyridin-2-yl)carbamoyl)pivalamide] | < 10 nM | < 10 nM | < 10 nM | 100 to 1000 nM | > 1000 nM |
| CCC(=O)NC(=O)Nc1ccc(Oc2ccnc(-c3ccc(C)nc3)c2)cn1 [Example 108, N-((5-((6′-methyl-[2,3′-bipyridin]-4-yl)oxy)pyridin-2-yl)carbamoyl)propionamide] | 10 to 100 nM | > 1000 nM | 10 to 100 nM | > 1000 nM | > 1000 nM |
